Data from US20230295182A1, “SPIRO DERIVATIVES OF ALPHA-D-GALACTOPYRANOSIDES” (Idorsia Pharmaceuticals Ltd, priority 2020, published 2023).

How the values were obtained:
human Gal-3 (hGal-3) = human Gal-3 (hGal-3) (Homo sapiens (Human), UniProt P17931); assay: Competitive binding assay: biotinylated hGal-3 to microplate-adsorbed asialofetuin (ASF); settings: Activity on hGal-3; binding to ASF-coated plates, 3 hours at 4° C.; mean values
Protocol: Evaluation of Compound Inhibitory Activity (IC50)
The inhibitory activity of compounds is determined in competitive binding assays. This spectrophotometric assay measures the binding of biotinylated human Gal-3 (hGal-3) or human Gal-1 (hGal-1), respectively, to a microplate-adsorbed glycoprotein, asialofetuin (ASF) (Proc Natl Acad Sci USA. 2013 Mar. 26; 110(13):5052-7.). Alternatively, and preferably, a human Gal-1 version in which all six cysteines are substituted by serines may be used.
Briefly, compounds are serially diluted in DMSO (working dilutions). ASF-coated 384 well plates are supplemented with 22.8 μL/well of biotinylated hGal-3 or hGal-1 in assay buffer (i.e. 300-1000 ng/mL biotinylated hGal-3 or hGal-1) to which 1.2 µL of compound working dilutions are added and mixed.
Plates are incubated for 3 hours at 4° C., then washed with cold assay buffer (3×50 uL), incubated for 1 hour with 25 μL/well of a streptavidin-peroxidase solution (diluted in assay buffer to 80 ng/mL) at 4° C., followed by further washing steps with assay buffer (3×50 uL). Finally, 25 µL/well of ABTS substrate is added.
The calculated IC50 values may fluctuate depending on the daily assay performance. Fluctuations of this kind are known to those skilled in the art. IC50 values from several measurements are given as mean values.

human Gal-1 (hGal-1) = human Gal-1 (hGal-1) (Homo sapiens, UniProt P09382); assay: Competitive binding assay: biotinylated hGal-1 to microplate-adsorbed asialofetuin (ASF); settings: Activities on hGal-1; binding to ASF-coated plates, 3 hours at 4° C.; mean values; read-out: Gal-1 IC50
Protocol: Evaluation of Compound Inhibitory Activity (IC50) The inhibitory activity of compounds is determined in competitive binding assays. […] Alternatively, and preferably, a human Gal-1 version in which all six cysteines are substituted by serines may be used. Briefly, compounds are serially diluted in DMSO (working dilutions). […] Plates are incubated for 3 hours at 4° C., then washed with cold assay buffer (3×50 uL), incubated for 1 hour with 25 μL/well of a streptavidin-peroxidase solution (diluted in assay buffer to 80 ng/mL) at 4° C., followed by further washing steps with assay buffer (3×50 uL). Finally, 25 µL/well of ABTS substrate is added. […] The calculated IC50 values may fluctuate depending on the daily assay performance. Fluctuations of this kind are known to those skilled in the art. IC50 values from several measurements are given as mean values.

Chain of human Gal-1 (hGal-1) (P09382 2-135 limits assumed): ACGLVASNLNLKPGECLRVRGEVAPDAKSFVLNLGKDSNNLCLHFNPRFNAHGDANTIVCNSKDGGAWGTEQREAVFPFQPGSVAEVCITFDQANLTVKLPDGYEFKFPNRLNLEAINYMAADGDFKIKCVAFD
Chain of human Gal-3 (hGal-3) (P17931 whole entry): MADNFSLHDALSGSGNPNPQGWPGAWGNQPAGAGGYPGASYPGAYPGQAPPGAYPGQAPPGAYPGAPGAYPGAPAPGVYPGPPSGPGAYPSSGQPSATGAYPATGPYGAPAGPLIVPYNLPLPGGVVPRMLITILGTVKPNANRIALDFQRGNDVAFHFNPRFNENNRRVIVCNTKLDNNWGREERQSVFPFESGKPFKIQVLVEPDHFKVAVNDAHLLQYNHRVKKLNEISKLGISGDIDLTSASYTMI

| SMILES | IC50 (human Gal-3 (hGal-3)) [nM] | IC50 (human Gal-1 (hGal-1)) [nM] |
| --- | --- | --- |
| CO[C@@H]1[C@@H](n2cc(-c3ccc(C)c(F)c3F)nn2)[C@@H](O)[C@@H](CO)O[C@@H]1CC1=NO[C@]2(CC[C@@H](C(C)(C)O)CC2)C1 [Example 1.63, (2R,3R,4S,5R,6R)-4-(4-(2,3-difluoro-4-methylphenyl)-1H-1,2,3-triazol-1-yl)-2-(hydroxymethyl)-6-(((5s,8S)-8-(2-hydroxypropan-2-yl)-1-oxa-2-azaspiro[4.5]dec-2-en-3-yl)methyl)-5-methoxytetrahydro-2H-pyran-3-ol] | 180 | 3400 |
| COC(=O)CO[C@@H]1[C@@H](n2cc(-c3ccc(C)c(F)c3F)nn2)[C@@H](O)[C@@H](CO)O[C@@H]1CC1=NOC2(CCC(F)(F)CC2)C1 [Example 1.72, methyl 2-(((2R,3R,4S,5R,6R)-2-((8,8-difluoro-1-oxa-2-azaspiro[4.5]dec-2-en-3-yl)methyl)-4-(4-(2,3-difluoro-4-methylphenyl)-1H-1,2,3-triazol-1-yl)-5-hydroxy-6-(hydroxymethyl)tetrahydro-2H-pyran-3-yl)oxy)acetate] | 140 | 5600 |
| CO[C@@H]1[C@@H](n2cc(-c3cc(F)c(F)c(F)c3)nn2)[C@@H](O)[C@@H](CO)O[C@@H]1CC1=NOC2(CCN(C)CC2)C1 [Example 2.29, (2R,3R,4S,5R,6R)-2-(hydroxymethyl)-5-methoxy-6-((8-methyl-1-oxa-2,8-diazaspiro[4.5]dec-2-en-3-yl)methyl)-4-(4-(3,4,5-trifluorophenyl)-1H-1,2,3-triazol-1-yl)tetrahydro-2H-pyran-3-ol] | 380 | 4800 |
| CO[C@@H]1[C@@H](n2cc(-c3ccc(C)c(F)c3F)nn2)[C@@H](O)[C@@H](CO)O[C@@H]1CC1=NOC2(CCC(=O)N(C)CC2)C1 (mixture of isomers) [Example 1.77, (RS)-3-(((2R,3R,4S,5R,6R)-4-(4-(2,3-difluoro-4-methylphenyl)-1H-1,2,3-triazol-1-yl)-5-hydroxy-6-(hydroxymethyl)-3-methoxytetrahydro-2H-pyran-2-yl)methyl)-8-methyl-1-oxa-2,8-diazaspiro[4.6]undec-2-en-9-one] | 100 | 4800 |
| CO[C@@H]1[C@@H](n2cc(-c3ccc(Cl)c(F)c3F)nn2)[C@@H](O)[C@@H](CO)O[C@@H]1CC1=NOC2(C1)C[C@@H](C(=O)O)N(C(=O)OC(C)(C)C)C2 (mixture of isomers) [Example 1.78, (5RS,8S)-7-(tert-butoxycarbonyl)-3-(((2R,3R,4S,5R,6R)-4-(4-(4-chloro-2,3-difluorophenyl)-1H-1,2,3-triazol-1-yl)-5-hydroxy-6-(hydroxymethyl)-3-methoxytetrahydro-2H-pyran-2-yl)methyl)-1-oxa-2,7-diazaspiro[4.4]non-2-ene-8-carboxylic acid] | 270 | 12000 |
| CCO[C@@H]1[C@@H](n2cc(-c3cc(F)c(F)c(F)c3)nn2)[C@@H](O)[C@@H](CO)O[C@@H]1CC1=NOC2(CCCCC2)C1 [Example 1.69, (2R,3R,4S,5R,6R)-6-((1-oxa-2-azaspiro[4.5]dec-2-en-3-yl)methyl)-5-ethoxy-2-(hydroxymethyl)-4-(4-(3,4,5-trifluorophenyl)-1H-1,2,3-triazol-1-yl)tetrahydro-2H-pyran-3-ol] | 300 | 3100 |
| CO[C@@H]1[C@@H](n2cc(-c3ccc(C)c(F)c3F)nn2)[C@@H](O)[C@@H](CO)O[C@@H]1CC1=NO[C@]2(CC[C@@H](C#N)CC2)C1 [Example 1.56, (5s,8S)-3-(((2R,3R,4S,5R,6R)-4-(4-(2,3-difluoro-4-methylphenyl)-1H-1,2,3-triazol-1-yl)-5-hydroxy-6-(hydroxymethyl)-3-methoxytetrahydro-2H-pyran-2-yl)methyl)-1-oxa-2-azaspiro[4.5]dec-2-ene-8-carbonitrile] | 120 | 3600 |
| CO[C@@H]1[C@@H](n2cc(-c3cc(F)c(F)c(F)c3)nn2)[C@@H](O)[C@@H](CO)O[C@@H]1CC1=NOC2(CCC(C)CC2)C1 (stereo partly drawn) [Example 1.30, (2R,3R,4S,5R,6R)-2-(hydroxymethyl)-5-methoxy-6-((8-methyl-1-oxa-2-azaspiro[4.5]dec-2-en-3-yl)methyl)-4-(4-(3,4,5-trifluorophenyl)-1H-1,2,3-triazol-1-yl)tetrahydro-2H-pyran-3-ol] | – | 3100 |
| OC[C@H]1O[C@H](CC2=NOC3(CCCCC3)C2)[C@H](OCC(F)F)[C@@H](n2cc(-c3cc(F)c(F)c(F)c3)nn2)[C@H]1O [Example 1.67, (2R,3R,4S,5R,6R)-6-((1-oxa-2-azaspiro[4.5]dec-2-en-3-yl)methyl)-5-(2,2-difluoroethoxy)-2-(hydroxymethyl)-4-(4-(3,4,5-trifluorophenyl)-1H-1,2,3-triazol-1-yl)tetrahydro-2H-pyran-3-ol] | – | 2900 |

More lines, in order of falling IC50 (human Gal-1 (hGal-1)), values ahead:

| IC50 (human Gal-3 (hGal-3)) [nM] | IC50 (human Gal-1 (hGal-1)) [nM] | SMILES |
| --- | --- | --- |
| 200 | 2900 | O=C(CO[C@@H]1[C@@H](n2cc(-c3cc(F)c(F)c(F)c3)nn2)[C@@H](O)[C@@H](CO)O[C@@H]1CC1=NOC2(CCCCC2)C1)N1CCOCC1 [Example 1.71, 2-(((2R,3R,4S,5R,6R)-2-((1-oxa-2-azaspiro[4.5]dec-2-en-3-yl)methyl)-5-hydroxy-6-(hydroxymethyl)-4-(4-(3,4,5-trifluorophenyl)-1H-1,2,3-triazol-1-yl)tetrahydro-2H-pyran-3-yl)oxy)-1-morpholinoethan-1-one] |
| 120 | 2700 | CO[C@@H]1[C@@H](n2cc(-c3cc(F)c(F)c(F)c3)nn2)[C@@H](O)[C@@H](CO)O[C@@H]1CN1CC2(CCN(C(=O)OC(C)(C)C)CC2)OC1=O [Example 3.01, tert-butyl 3-(((2R,3R,4S,5R,6R)-5-hydroxy-6-(hydroxymethyl)-3-methoxy-4-(4-(3,4,5-trifluorophenyl)-1H-1,2,3-triazol-1-yl)tetrahydro-2H-pyran-2-yl)methyl)-2-oxo-1-oxa-3,8-diazaspiro[4.5]decane-8-carboxylate] |
| 490 | 2600 | CO[C@@H]1[C@@H](n2cc(-c3ccc(F)c(F)c3F)nn2)[C@@H](O)[C@@H](CO)O[C@@H]1CC1=NOC2(CCC(C(C)(C)O)CC2)C1 (stereo partly drawn) [Example 1.48, (2R,3R,4S,5R,6R)-2-(hydroxymethyl)-6-((8-(2-hydroxypropan-2-yl)-1-oxa-2-azaspiro[4.5]dec-2-en-3-yl)methyl)-5-methoxy-4-(4-(2,3,4-trifluorophenyl)-1H-1,2,3-triazol-1-yl)tetrahydro-2H-pyran-3-ol] |
| 430 | 2200 | CO[C@@H]1[C@@H](n2cc(-c3cc(F)c(C)cc3F)nn2)[C@@H](O)[C@@H](CO)O[C@@H]1CC1=NOC2(CCCCC2)C1 [Example 1.47, (2R,3R,4S,5R,6R)-6-((1-oxa-2-azaspiro[4.5]dec-2-en-3-yl)methyl)-4-(4-(2,5-difluoro-4-methylphenyl)-1H-1,2,3-triazol-1-yl)-2-(hydroxymethyl)-5-methoxytetrahydro-2H-pyran-3-ol] |
| 50 | 1950 | CO[C@@H]1[C@@H](n2cc(-c3ccc(C)c(F)c3F)nn2)[C@@H](O)[C@@H](CO)O[C@@H]1CC1=NOC2(C1)CC1CCC(C1)C2 (stereo partly drawn) [Example 1.82, (2R,3R,4S,5R,6R)-6-((4′H-spiro[bicyclo[3.2.1]octane-3,5′-isoxazol]-3′-yl)methyl)-4-(4-(2,3-difluoro-4-methylphenyl)-1H-1,2,3-triazol-1-yl)-2-(hydroxymethyl)-5-methoxytetrahydro-2H-pyran-3-ol] |
| 110 | 1800 | CO[C@@H]1[C@@H](n2cc(-c3cc(F)c(F)c(F)c3)nn2)[C@@H](O)[C@@H](CO)O[C@@H]1CC1=NO[C@]2(CC[C@H](NCC(F)F)CC2)C1 [Example 2.20, (2R,3R,4S,5R,6R)-6-(((5r,8R)-8-((2,2-difluoroethyl)amino)-1-oxa-2-azaspiro[4.5]dec-2-en-3-yl)methyl)-2-(hydroxymethyl)-5-methoxy-4-(4-(3,4,5-trifluorophenyl)-1H-1,2,3-triazol-1-yl)tetrahydro-2H-pyran-3-ol] |
| – | 1300 | CO[C@@H]1[C@@H](n2cc(-c3ccc(C)c(F)c3F)nn2)[C@@H](O)[C@@H](CO)O[C@@H]1CN1CC2(CCCCC2)NC1=O [Example 4.01, 3-(((2R,3R,4S,5R,6R)-4-(4-(2,3-difluoro-4-methylphenyl)-1H-1,2,3-triazol-1-yl)-5-hydroxy-6-(hydroxymethyl)-3-methoxytetrahydro-2H-pyran-2-yl)methyl)-1,3-diazaspiro[4.5]decan-2-one] |
| 71 | 340 | CO[C@@H]1[C@@H](n2cc(-c3ccc(C)c(F)c3F)nn2)[C@@H](O)[C@@H](CO)O[C@@H]1CC1=NO[C@]2(CC[C@H](NC(C)=O)CC2)C1 [Example 2.06] |
